The text below walks through data of patent US20200024278A1, “COMPOSITION COMPRISING ANTIBIOTIC COMPOUND AND AN HETEROCYCLIC COMPOUND AND THEIR USE IN PREVENTING OR TREATING BACTERIAL INFECTIONS” (MUTABILIS, priority 2016, published 2020).

Assay [1] deals with ECO 190317. The assay is described as follows: MIC, broth microdilution (CLSI), substance alone or ATB combined with compound at 4 or 8 μg/mL. Type of assay: cell-based, E. coli. The conditions noted are these: Escherichia coli, ECO 190317. Put shortly:
(§1)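 Antibiotic MICs were determined in presence of fixed compound at 4 or 8 μg/mL, and compound MICs alone, by visual growth inhibition. Inoculum 5·10^5 CFU/mL in ca-MHB, incubated 35 °C for 16-20 h per CLSI-M7-A7. Glucose-6-phosphate (25 μg/ml) added when fosfomycin was tested.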
For orientation: Dilution methods test growth across graded concentrations, often in twofold steps.

In assay [2] the test system is ECO UFR39. Described as above. Type of assay: cell-based, E. coli. The conditions noted are these: Escherichia coli, ECO UFR39. A digest of the protocol: as §1
The test system of assay [3] is KPN 6299. The assay is described as above. It counts as cell-based, K. pneumoniae. To be noted: Klebsiella pneumoniae. A digest of the protocol: as §1
Assay [4] relates to KPN BAA-1898. The assay is described as above. It counts as cell-based, K. pneumoniae. To be noted: Klebsiella pneumoniae, BAA1898, KPN BAA-1898. A digest of the protocol:
as §1

Assay [5] deals with KPN UFR42. Described as above. Type of assay: cell-based, K. pneumoniae. The conditions noted are these: Klebsiella pneumoniae, KPN UFR42. A digest of the protocol:
as §1

Assay [6] concerns KPN UFR68. The description is as above. Type of assay: cell-based, K. pneumoniae. To be noted: Klebsiella pneumoniae, substance alone. A digest of the protocol: as §1
In assay [7] the test system is ECL P99. The description is as above. Type of assay: cell-based, E. cloacae. The conditions noted are these: Enterobacter cloacae, ECL P99. A digest of the protocol:
as §1

Assay [8] relates to PAE 105250. The description is as above. To be noted: Pseudomonas aeruginosa, PAE 105250. Type of assay: cell-based, P. aeruginosa. A digest of the protocol:
as §1

Assay [9] has as its system PAE UFR48. The assay is described as above. Type of assay: cell-based, P. aeruginosa. To be noted: Pseudomonas aeruginosa, PAE UFR48. Put shortly: as §1
Assay [10] relates to PAE UFR90. The assay is described as above. Type of assay: cell-based, P. aeruginosa. To be noted: Pseudomonas aeruginosa, PAE UFR90. Put shortly: as §1
Assay [11] deals with SAU 29213. The assay is described as above. Type of assay: cell-based, S. aureus. To be noted: Staphylococcus aureus. Put shortly:
as §1

Assay [12] deals with SPN 49619. Described as above. To be noted: Streptococcus pneumoniae, SPN 49619. It counts as cell-based, S. pneumoniae. A digest of the protocol: as §1
In assay [13] the test system is PAE 27853. It counts as cell-based, P. aeruginosa. The conditions noted are these: tntbc: Too numerous to be counted. The method, then:
Method 4: Determination of the Spontaneous Mutation Frequency of the Compounds Alone and Combined with Antibiotics.
Bacterial isolates (Table 3) were grown overnight at 35° C. on TSA plates (Becton-Dickinson and Company) in ambient air. After 24 h of incubation, isolated bacterial colonies were added to cation-adjusted Mueller-Hinton broth (ca-MHB; Becton-Dickinson and Company) and cultured for approximately 6 h at 35° C. The pre-culture was stopped once bacteria have reached an OD600 nm of 0.5 for 200 μL. The bacterial suspension was centrifuged at 4000 rpm for 20 min. The supernatant was then discarded and the bacterial pellet was dissolved in ca-MHB to obtain 10^9 to 10^10 CFU/mL. Assays including Fosfomycin were supplemented with 25 μg/ml of Glucose-6-phosphate. 100 μL of the adjusted bacterial suspension were spread on agar plates containing different concentrations of the compounds of the present invention alone or combined with an antibacterial (Table 1). The plates were incubated for 24-48 h at 35° C. in ambient air. CFU were numerated on each agar plate containing compound. The number of resistant colonies obtained was divided by the starting inoculum to give the frequency of spontaneous resistance for a given incubation time (24 and 48 h).

The mark [14] stands for this setting: antibiotic alone, read-out: MIC ATB alone.

Read-outs that look alike come from different tables or passages of the source.

In general, MIC refers to the smallest concentration in the dilution series that meets the test's criterion for growth inhibition.

On to `CCN1CCN(C(=O)N[C@@H](C(=O)N[C@@H]2C(=O)N3[C@@H]2SC(C)(C)[C@@H]3C(=O)O)c2ccccc2)C(=O)C1=O` [PIP, Piperacillin, reference compound], for which the MIC was > 1020 µg/mL in assay [1] (setting [14]); > 1020 µg/mL in assay [1] (substance alone, read-out: MIC); > 1020 µg/mL in [2] (setting [14]); > 1020 µg/mL in assay [2] (substance alone, read-out: MIC); > 1020 µg/mL in [3] (setting [14]); > 1020 µg/mL in assay [3] (substance alone, read-out: MIC). For the same compound, the MIC in assay [4] (setting [14]) was > 1020 µg/mL; in assay [4] (substance alone, read-out: MIC) it was > 1020 µg/mL; in [5] (setting [14]), > 256 µg/mL; in assay [5] (substance alone, read-out: MIC), > 256 µg/mL; in [6] it was > 1020 µg/mL; in [7] (setting [14]), 512 µg/mL. In addition, the MIC in [7] (substance alone, read-out: MIC) is 512 µg/mL; in [8] (setting [14]), 128 µg/mL; in assay [8] (substance alone, read-out: MIC) it was 128 µg/mL; in [9] (setting [14]), 256 µg/mL; in [9] (substance alone, read-out: MIC) it was 256 µg/mL; in [10] (setting [14]), 256 µg/mL. The MIC in [10] (substance alone, read-out: MIC) came to 256 µg/mL; in assay [11] (antibiotic alone, SAU 29213, read-out: MIC ATB alone), 8 µg/mL; in [11] (substance alone, SAU 29213 (MSSA 29213), read-out: MIC), 8 µg/mL; in assay [12] (setting [14]) it was 0.5 µg/mL; in [12] (substance alone, read-out: MIC), 0.5 µg/mL.

Regarding `O=C(O)c1cn(C2CC2)c2cc(N3CCNCC3)c(F)cc2c1=O` [CIP, Ciprofloxacin], the “Frequency of spontaneous resistance” value in assay [13] (single agent at 4.MIC) is 5.1E−08; in assay [13] (single agent at 8.MIC), 4.0E−09.
